Results published in the NIST ThermoML archive (doi:10.1021/je800571y).

Assay: xn = mol fraction of the nth substance listed
Conditions: 101 kPa, Liquid

CCC(C)=O [butanone] + CC(C)O
Conditions | mass density, 293.15 K [kg/m3] | mass density, 298.15 K [kg/m3] | mass density, 303.15 K [kg/m3] | mass density, 308.15 K [kg/m3] | mass density, 313.15 K [kg/m3] | viscosity, 293.15 K [mPa·s] | viscosity, 298.15 K [mPa·s] | viscosity, 303.15 K [mPa·s] | viscosity, 308.15 K [mPa·s] | viscosity, 313.15 K [mPa·s]
x1 = 0.0562 | 786.4 | 782.34 | 778.9 | 773.52 | 769.21 | – | – | – | – | –
x1 = 0.0595 | – | – | – | – | – | 1.816 | 1.596 | 1.413 | 1.272 | 1.165
x1 = 0.1136 | 787.47 | 783.31 | 779.85 | 774.58 | 770.17 | – | – | – | – | –
x1 = 0.1282 | – | – | – | – | – | 1.504 | 1.362 | 1.207 | 1.095 | 1.003
x1 = 0.1724 | 788.54 | 784.36 | 780.81 | 775.58 | 771.13 | 1.294 | 1.185 | 1.046 | 0.9637 | 0.8693
x1 = 0.2326 | 789.67 | 785.46 | 781.82 | 776.64 | 772.12 | 1.103 | 0.9992 | 0.9083 | 0.8366 | 0.774
x1 = 0.2941 | 790.83 | 786.59 | 782.85 | 777.7 | 773.13 | 0.9668 | 0.8812 | 0.8021 | 0.7488 | 0.6929
x1 = 0.3571 | 792.05 | 787.74 | 783.91 | 778.8 | 774.16 | – | – | – | – | –
x1 = 0.3572 | – | – | – | – | – | 0.852 | 0.7675 | 0.7154 | 0.6663 | 0.6169
x1 = 0.4217 | 793.29 | 788.95 | 785.01 | 779.92 | 775.21 | 0.7693 | 0.6949 | 0.6406 | 0.5987 | 0.5567
x1 = 0.4878 | 794.6 | 790.18 | 786.14 | 781.07 | 776.27 | 0.7113 | 0.6289 | 0.5816 | 0.5428 | 0.4753
x1 = 0.5555 | 795.96 | 791.44 | 787.29 | 782.24 | 777.37 | – | – | – | – | –
x1 = 0.5556 | – | – | – | – | – | 0.6609 | 0.5801 | 0.5303 | 0.4834 | 0.4406
x1 = 0.625 | 797.35 | 792.74 | 788.49 | 783.44 | 778.48 | 0.6072 | 0.5071 | 0.4848 | 0.4314 | 0.3846
x1 = 0.6962 | 798.79 | 794.08 | 789.7 | 784.66 | 779.61 | 0.5511 | 0.4516 | 0.4355 | 0.3751 | 0.3302
x1 = 0.7692 | 800.26 | 795.45 | 790.95 | 785.91 | 780.76 | – | – | – | – | –
x1 = 0.7693 | – | – | – | – | – | 0.5144 | 0.3852 | 0.3866 | 0.3345 | 0.316
x1 = 0.8442 | 801.6 | 796.86 | 792.21 | 787.18 | 781.93 | 0.4675 | 0.353 | 0.3359 | 0.306 | 0.286
x1 = 0.9211 | 803.3 | 798.3 | 793.51 | 788.48 | 783.12 | 0.4293 | 0.3262 | 0.2972 | 0.2758 | 0.2706
x1 = 1 | 804.92 | 799.7 | 794.81 | 789.78 | 784.32 | – | 0.2828 | 0.2666 | 0.2601 | 0.2545
